Laboratory results from patent US11827628B2, “Compositions and methods for inhibition of the JAK pathway” (Rigel Pharmaceuticals, Inc., priority 2005, dated 2023).

Assays:
[1] = tested on: IL-4 stimulated expression of CD23 in human Ramos B cells (JAK-1 and JAK-3); assay: Assay for Ramos B-Cell Line Stimulated with IL-4 (CD23 upregulation, FACS); type: cell-based; settings: Homo sapiens, Ramos, Ramos B cells stimulated with IL-4, CD23 expression by FACS; read-out: IC50, Example 41
Method in brief: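 Read-out is surface CD23 by FACS after anti-CD23-PE staining, giving IC50. Before this, cells were stimulated 20-24 h with 50 units/mL (final) human IL-4, following 1 h compound or vehicle pre-treatment at 37 °C; log-phase Ramos B cells, 5×10^4 per well in 5% serum RPMI.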

[2] = tested on: up-regulation of ICAM-1 (CD54) by IFNγ in U937 human monocytic cells; assay: U937 IFNγ ICAM1 FACS Assay; type: cell-based; settings: Homo sapiens, U-937, U937 cells stimulated with IFNγ, ICAM-1 expression by FACS; read-out: IC50, Example 44
Method in brief: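 U937 cells in 10% FCS RPMI were preincubated 30 min at 37 °C with an 8-point, 3-fold compound dilution series in duplicate, then stimulated with IFNγ for 18–24 h. Surface ICAM-1 was stained with APC anti-ICAM-1 and read by flow cytometry as geometric mean on live-gated cells. EC50 was derived.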

IC50 [1] [nM]	IC50 [2] [nM]	SMILES
115	2240	Cc1ccc(Nc2ncc(F)c(Nc3ccc4c(CC#N)c[nH]c4c3)n2)cc1S(N)(=O)=O [IX-11, N2-(3-Aminosulfonyl-4-methylphenyl)-N4-(3-cyanomethyl-1H-indol-6-yl)-5-fluoro-2,4-pyrimidinediamine]
37.8	577	CN1C(=O)CSc2ccc(Nc3nc(Nc4cccc(S(N)(=O)=O)c4)ncc3F)cc21 [VII-49, N2-(3-Aminosulfonylphenyl)-5-fluoro-N4-(4-methyl-3-oxo-benz[1,4]thiazin-6-yl)-2,4-pyrimidinediamine]
188	3040	N#CCN1C(=O)CSc2ccc(Nc3nc(Nc4cccc(S(N)(=O)=O)c4)ncc3F)cc21 [Compound V-12, N2-(3-Aminosulphonylphenyl)-5-fluoro-N4-(3-oxo-4-cyanomethyl-benzo[1,4]thiazin-6-yl)-2,4-pyrimidinediamine]
358	2630	NS(=O)(=O)c1ccc(Nc2ncc(F)c(NCCc3ccc(-n4ccnc4)cc3)n2)cc1 [III-90, N2-(4-Aminosulfonylphenyl)-5-fluoro-N4-[4-(1-imidazolyl)phenethyl]-2,4-pyrimidinediamine]
70.6	657	C#CCOc1ccc(Nc2nc(Nc3ccc(N4CCN(C)CC4)c(S(N)(=O)=O)c3)ncc2F)cc1 [VI-70, N2-[3-Aminosulfonyl-4-(1-methylpiperazin-4-yl)phenyl]-5-fluoro-N4-[4-(prop-2-ynyloxy)phenyl]-2,4-pyrimidinediamine]
83.6	5460	NS(=O)(=O)c1cccc(Nc2ncc(F)c(Nc3ccc(Cl)c(Cl)c3)n2)c1 [VI-110, N2-(3-Aminosulfonylphenyl)-N4-(3,4-dichlorophenyl)-5-fluoro-2,4-pyrimidinediamine]
168	1740	Cc1ccc(Nc2ncc(F)c(Nc3ccc(CO)cc3)n2)cc1S(N)(=O)=O [VI-52, N2-(3-Aminosulfonyl-4-methylphenyl)-5-fluoro-N4-(4-hydroxymethylphenyl)-2,4-pyrimidinediamine]
217	1880	Cc1ccc(Nc2ncc(F)c(Nc3ccc(C(F)(F)F)cc3)n2)cc1S(N)(=O)=O [VI-50, N2-(3-Aminosulfonyl-4-methylphenyl)-5-fluoro-N4-(4-trifluoromethylphenyl)-2,4-pyrimidinediamine]
73.6	272	NS(=O)(=O)c1cccc(Nc2ncc(F)c(Nc3cccc(-c4cnco4)c3)n2)c1 [IV-1, N2-(3-Aminosulfonylphenyl)-5-fluoro-N4-[3-(1,3-oxazol-5-yl)phenyl]-2,4-pyrimidinediamine]
102	1810	C#CCOc1ccc(Nc2nc(Nc3ccc(C)c(S(=O)(=O)NC)c3)ncc2F)cc1 [VI-68, 5-Fluoro-N2-(4-methyl-3-methylaminosulfonylphenyl)-N4-[4-(prop-2-ynyloxy)phenyl]-2,4-pyrimidinediamine]
107	2060	Cc1cnc(Nc2cccc(S(N)(=O)=O)c2)nc1Nc1ccc2c(c1)NC(=O)CO2 [VII-32, N2-(3-Aminosulphonylphenyl)-5-methyl-N4-(3-oxo-benz[1,4]oxazin-6-yl)-2,4-pyrimidinediamine]
602	31800	CN1C(=O)C(C)(C)S(=O)(=O)c2ccc(Nc3nc(Nc4ccc(S(N)(=O)=O)cc4)ncc3F)cc21 [VII-12, N2-(4-Aminosulphonylphenyl)-5-fluoro-N4-(2,2,4-trimethyl-1,1,3-trioxo-benzo[1,4]thiazin-6-yl)-2,4-pyrimidinediamine]
138	1850	N#CCc1c[nH]c2ccc(Nc3nc(Nc4cccc(S(N)(=O)=O)c4)ncc3F)cc12 [IX-13, N2-(3-Aminosulfonylphenyl)-N4-(3-cyanomethyl-1H-indol-5-yl)-5-fluoro-2,4-pyrimidinediamine]
153	487	NS(=O)(=O)c1cccc(Nc2ncc(F)c(Nc3ccc(CCCO)cc3)n2)c1 [VI-86, N2-(3-Aminosulfonylphenyl)-5-fluoro-N4-[4-(3-hydroxypropyl)phenyl]-2,4-pyrimidinediamine]
99	367	CC#CCOc1ccc(Nc2nc(Nc3ccc(C)c(S(N)(=O)=O)c3)ncc2F)cc1 [VI-61, N2-(3-Aminosulfonyl-4-methylphenyl)-N4-[4-(but-2-ynyloxy)phenyl]-5-fluoro-2,4-pyrimidinediamine]
321	4900	NS(=O)(=O)c1cc(Nc2ncc(F)c(Nc3ccc(O)cc3)n2)ccc1F [VI-100, N2-(3-Aminosulfonyl-4-fluorophenyl)-5-fluoro-N4-(4-hydroxyphenyl)-2,4-pyrimidinediamine]
582	3950	NS(=O)(=O)c1cccc(Nc2ncc(F)c(Nc3ccc(C(=O)N4CCSCC4)cc3)n2)c1 [IX-34, N2-(3-Aminosulfonylphenyl)-5-fluoro-N4-[4-(4-thiomorpholinyl)carbonylphenyl]-2,4-pyrimidinediamine]
246	5350	COc1ccc(Nc2nc(Nc3ccc(C)c(S(N)(=O)=O)c3)ncc2F)nc1N [VII-9, N2-(3-Aminosulfonyl-4-methylphenyl)-N4-[2-amino-3-methoxypyrid-6-yl]-5-fluoro-2,4-pyrimidinediamine]
84.8	1180	Cc1ccc2cc(Nc3nc(Nc4cccc(S(N)(=O)=O)c4)ncc3F)ccc2n1 [VII-72, N2-(3-Aminosulfonylphenyl)-5-fluoro-N4-(2-methylquinolin-6-yl)-2,4-pyrimidinediamine]
136	1100	NS(=O)(=O)c1cccc(Nc2ncc(F)c(Nc3ccc4sccc4c3)n2)c1 [VII-58, N2-(3-Aminosulfonylphenyl)-N4-(benzothiophen-5-yl)-5-fluoro-2,4-pyrimidinediamine]
90.6	964	C#CCNc1ccc(Nc2nc(Nc3ccc(C)c(S(N)(=O)=O)c3)ncc2F)cc1 [VI-65, N2-(3-Aminosulfonyl-4-methylphenyl)-5-fluoro-N4-[4-(prop-2-ynylamino)phenyl]-2,4-pyrimidinediamine]
295	64600	NC(=O)c1cc2cc(Nc3nc(Nc4cccc(S(N)(=O)=O)c4)ncc3F)ccc2o1 [VII-54, N2-(3-Aminosulfonylphenyl)-N4-(2-aminocarbonylbenzofurane-5-yl)-5-fluoro-2,4-pyrimidinediamine]
52.9	1200	Cc1ccc(Nc2ncc(F)c(Nc3ccc4c(c3)N(CC#N)C(=O)CS4)n2)cc1S(N)(=O)=O [Compound V-13, N2-(3-Aminosulphonyl4-methylphenyl)-5-fluoro-N4-(3-oxo-4-cyanomethyl-benzo[1,4]thiazin-6-yl)-2,4-pyrimidinediamine]
43.4	454	COc1ccc(Nc2nc(Nc3cc(C)c(Cl)c(S(N)(=O)=O)c3)ncc2F)cc1Cl [VI-17, N2-(3-Aminosulfonyl-4-chloro-5-methylphenyl)-N4-(3-chloro-4-methoxyphenyl)-5-fluoro-2,4-pyrimidinediamine]
261	2700	COc1ccc(CN2C(=O)C(C)Sc3ccc(Nc4nc(Nc5ccc(S(N)(=O)=O)cc5)ncc4F)cc32)cc1 (racemic) [Compound V-10, (R/S)-N2-(4-Aminosulphonylphenyl)-5-fluoro-N4-[2-methyl-3-oxo-4-(4-methoxybenzyl)-benzo[1,4]thiazin-6-yl]-2,4-pyrimidinediamine]
